Where two headings read alike, the source gives them in different places.
Legend:
[1] = system: L. donovani axenic amastigotes; test: Leishmania axenic amastigote viability assay; assay type: cell-based, Leishmania donovani; conditions: Leishmania donovani
Method: (§1) carried out as described above using 5%, 10% and 20% FBS in the media. To examine the effect of the methionine concentration on the potency of DDD806905 parasites were grown in the presence of drug and in the presence (or absence) of 20-fold excess methionine (0.3 g/l). IC50 curve fitting was undertaken in GraFit version 6.0 (Erithacus Software) using a four-parameter logistic dose-response curve (equation 6), with s the slope.
(§2) Leishmania Axenic Amastigote Assay
(§3) The Leishmania axenic amastigote assay was performed using the method published in Nühs et al 15.
(§4) Leishmania Intracellular Amastigote Assay
(§5) The intramacrophage Leishmania assay was performed using a modified version of the method described in De Rycker et al 16. […]
amphotericin B was included. Controls were as follows: columns 11 and 12: DMSO, columns 23 and 24: amphotericin B (final concentration 2 µM). 350 nl of compound was pre-dispensed into 384-well sterile intermediary plates. To the intermediary plates, 35 µl of THP-1 media was added and plates were shaken for >5 min to ensure complete mixing. THP-1 cells (8,000 per well, 50 µl) were plated into black clear-bottom 384-well plates (Corning) in presence of 20 nM phorbol 12-myristate 13- […]
in a humidified incubator for 75 h. The cells were then washed with 450 µl sterile phosphate buffered saline (PBS) supplemented with 1 mM CaCl2, 0.5 mM MgCl2, 0.1% (w/v) bovine serum albumin (PBS-A) and amastigotes were added to all wells at a multiplicity of infection of 5 (40,000 amastigotes per well). After 40 min at room temperature, plates were returned to the incubator.
Amastigotes were incubated in the presence of THP-1 macrophages for 16 h. Any remaining extracellular amastigotes were subsequently removed by washing with PBS-A followed by addition of 25 µl of the compound pre-dilutions using an Ipette-pro pipetting station (FluidX). The final dilution of each compound was 200-fold. Plates were incubated for 96 h and then washed (250 µl PBS-A) and fixed (4 % (v/v) formaldehyde-PBS, 30 min, room temperature). After fixation, the wells were washed with 250 µl PBS, stained (10 µg/ml DAPI, 0.4 µg/mL HCS Cellmask Deep Red in PBS + 0.1% (v/v) Triton X-100, 30 min, room temperature) and washed with 250 µl PBS. Finally, PBS + 0.05% (v/v) thimerosal was added to the wells, the plates were sealed and imaged on a high-content microscope (GE IN Cell 2000) using a 10x objective. Image analysis was carried out with GE IN Cell Analyzer 1000 Workstation using the “Multi Target Analysis” module. For each well, i) THP-1 cell count (cytotoxicity readout) and ii) average number of amastigotes per cell (potency readout) were […]

[2] = system: THP-1 lysosomes; test: Lysosomotropism assay (LysoTracker Red competition); assay type: cell-based, human; conditions: PMA-differentiated THP-1 cells, 30 min
Method: calculated, both in terms of pEC50 values. MIC (minimum inhibitory concentration) values are defined as the lowest concentration tested at which maximal inhibition is reached.
THP-1 cells were differentiated in 96-well plates with PMA as described above. Following differentiation the cells were treated for 30 min with dose-response curves of test compounds in presence of 100 nM LysoTracker Red DND-99 (Thermo Fisher) and 5 µg/ml Hoechst 33342. Next cells were washed 3 times with Hanks Buffered Saline Solution (Gibco) and imaged on a Perkin Elmer Operetta system. An image analysis algorithm to measure mean Lysotracker Red DND-99 intensity per cell was developed in Columbus. Mean Intensity was normalised using a no dye control (100% effect) and DMSO treated wells stained with Lysotracker Red DND-99 (0% effect control). Dose-response curves were fitted for the test compounds using a four-parameter equation (equation 5 above) and constrained to 0 and 100% where necessary.
To measure the pKa of DDD806905, a fast UV-metric method was performed using a Sirius T3 instrument (Sirius Analytical, U.K.). The calculation of the pKa was determined using the Sirius T3 refine software (Sirius Analytical, U.K.). In brief, the UV-metric pKa method is based on measuring pH during an acid-base titration and monitoring UV absorbance shift. The ionisation curve (Bjerrum curve) was then used to determine the pH where exactly 50 % of neutral and 50 % of ionised species was present. DDD806905 must be fully dissolved throughout the titration and so the titration is set to start at the pH where DDD806905 is in its fully ionised state. The appearance of precipitate was monitored throughout the experiment by a turbidity sensing device. […] The pKas of DDD806905 was determined at the pH where there was maximal change in UV absorbance with respect to pH. […]
LogD7.4 values were quantified using a Sirius T3 instrument (Sirius Analytical, U.K.). […] The instrument software calculated the pH of each data point using mass and charge balance equations and then fitted this theoretical data to the experimental data. […]

[3] = system: mitochondrial protein synthesis in H9C2 cells; test: Mitochondrial protein synthesis assay (COX-1/SDH-A In-Cell ELISA); assay type: cell-based; conditions: COX-1/SDH-A ratio, average of three experiments
[4] = system: L. donovani promastigotes; test: Leishmania promastigote viability assay; assay type: cell-based, Leishmania donovani; conditions: Leishmania donovani
Method: After suitable sample preparation, the
In vivo Leishmaniasis Animal Model […]
administered twice daily over the same interval.
Parasite load is expressed in Leishman-
Knock-out and overexpressor generation
Leishmania Promastigote Assay
Serum shift experiments were […]
as §1, §2, §3, §4, §5
amphotericin B was included. Controls were as follows: columns 11 and 12: DMSO, columns 23 and 24: amphotericin B (final concentration 2 µM). 350 nl of compound was pre-dispensed into 384-well sterile intermediary plates. To the intermediary plates, 35 µl of THP-1 media was added and plates were shaken for >5 min to ensure complete mixing. THP-1 cells (8,000 per well, 50 µl) were plated into black clear-bottom 384-well plates (Corning) in presence of 20 nM phorbol 12-myristate 13-

**Q.** For `Cl.Cl.O=c1nc(NCCCNCc2cc3c(Cl)cc(Cl)cc3[nH]2)[nH]c2ccccc12` [DDD806905, 2-((3-(((4,6-dichloro-1H-indol-2-yl)methyl)amino)propyl)amino)quinazolin-4(1H)-one dihydrochloride], which EC50 ([1]; Table 1, read-out: Leishmania Axenic Amastigote EC50) is on record?
**A.** Its EC50 is 14000 nM.

**Q.** And the EC50 ([1]; media pH 5.6, read-out: axenic amastigote EC50)?
**A.** Its EC50 is 13700 nM.

**Q.** What about the “competition with lysotracker red accumulation in THP-1 lysosomes” value [2] of the same compound?
**A.** The value was “did compete with lysotracker red accumulation”.

**Q.** And the IC50 ([3]; H9C2 cells)?
**A.** Its IC50 is 1700 nM.

**Q.** And the IC50 ([3]; Rattus norvegicus, H9c2, H9C2 cells)?
**A.** The IC50 was 1680 nM.

**Q.** What about the EC50 ([4]; 10% serum, read-out: promastigote EC50) of the same compound?
**A.** Its EC50 is 270 nM.

**Q.** And the EC50 ([4]; Supplementary Table 1, read-out: Leishmania Promastigote EC50)?
**A.** Its EC50 is 440 nM.

**Q.** And the EC50 ([4]; absence of excess methionine, read-out: promastigote EC50)?
**A.** The EC50 was 460 nM.

**Q.** And the EC50 ([4]; extrapolated to 100% serum, read-out: predicted promastigote EC50)?
**A.** The EC50 was 1750 nM.

**Q.** And the EC50 ([4]; extrapolated to no serum, read-out: predicted promastigote EC50)?
**A.** Its EC50 is 120 nM.

**Q.** What about the EC50 ([4]; presence of excess methionine (2 mM), read-out: promastigote EC50) of the same compound?
**A.** The EC50 was 1900 nM.

Source: paper PMC5663395, “Chemical Validation of Methionyl-tRNA Synthetase as a Druggable Target in Leishmania donovani” (ACS Infectious Diseases, 2017)
